These are literature values, as cited in patent EP1530463B1, “L-ARGININE CONTAINING PHARMACEUTICAL COMPOSITION” (Vasopharm Biotech GmbH, priority 2002, dated 2004).

SMILES strings stand for the structures. Where two headings read alike, the source gives them in different places.

Broadly, the pKa is the pH at which an ionisable group is half protonated. For the compound `N=C(N)NCCC[C@H](N)C(=O)O` [L-arginine], the pKa (guanidino group) is reported as 12.48.
For `O=C1O[C@H]([C@@H](O)CO)C(O)=C1O` [ascorbic acid], where the note is “organic acid”, the pKa was 4.17.
